The values that follow are results of earlier work, collected in US10213443B2, “Tetracycline topical formulations, preparation and uses thereof in treating an ocular condition” (Hovione International Ltd., priority 2012, dated 2019).

For series [1] the following is noted: in man.
For series [2] the following is noted: compared with doxycycline.

The structures appear in SMILES notation.

For the molecule `CN(C)c1ccc(O)c2c1C[C@H]1C[C@H]3[C@H](N(C)C)C(O)=C(C(N)=O)C(=O)[C@@]3(O)C(O)=C1C2=O` [Minocycline, minocycline], the oral bioavailability in series [1] is listed as approximately 100%. The phototoxicity result in series [2] is given as “not phototoxic”.
